According to PubChem BioAssay AID328 (DTP/NCI, 2004):
“And” between values parts separate entries of the source, which are not always exact repeats. Identical values can stand only once. Toxic doses and inconclusive results are not listed. Rule for the calls: active = survival T/C of 150% or more; inactive = T/C below 125% in these data.

Tested on: BDF1 mice, P388 leukemia ip, median survival T/C
Test: NCI In Vivo Anticancer Drug Screen. Data for tumor model P388 Leukemia (intraperitoneal) in B6D2F1 (BDF1) mice
Details: endpoint: median survival time, higher = longer survival
Outline: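 Read-out is survival of treated animals expressed relative to the vehicle group, as a T/C ratio.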

[1] = dose: 12.5 mg/kg/injection, schedule: Q01DX009 (ip), vehicle: saline
[2] = dose: 25.0 mg/kg/injection, schedule: Q01DX009 (ip), vehicle: saline
[3] = dose: 25.0 mg/kg/injection, schedule: Q04DX003 (ip), vehicle: saline with Tween-80
[4] = dose: 50.0 mg/kg/injection, schedule: Q01DX009 (ip), vehicle: saline with Tween-80
[5] = dose: 50.0 mg/kg/injection, schedule: Q04DX003 (ip), vehicle: saline with Tween-80
[6] = dose: 100.0 mg/kg/injection, schedule: Q04DX003 (ip), vehicle: saline with Tween-80
[7] = dose: 200.0 mg/kg/injection, schedule: Q04DX003 (ip), vehicle: saline with Tween-80
[8] = dose: 100.0 mg/kg/injection, schedule: Q01DX009 (ip), vehicle: saline
[9] = dose: 12.5 mg/kg/injection, schedule: Q01DX009 (ip), vehicle: saline with Tween-80
[10] = dose: 25.0 mg/kg/injection, schedule: Q01DX009 (ip), vehicle: saline with Tween-80
[11] = dose: 100.0 mg/kg/injection, schedule: Q01DX009 (ip), vehicle: saline with Tween-80
[12] = dose: 25.0 mg/kg/injection, schedule: Q04DX003 (ip), vehicle: water
[13] = dose: 50.0 mg/kg/injection, schedule: Q04DX003 (ip), vehicle: water
[14] = dose: 100.0 mg/kg/injection, schedule: Q04DX003 (ip), vehicle: water
[15] = dose: 200.0 mg/kg/injection, schedule: Q01DX009 (ip), vehicle: saline with Tween-80
[16] = dose: 100.0 mg/kg/injection, schedule: Q04DX003 (ip), vehicle: Klucel (hydroxypropylcellulose) (HPC)
[17] = dose: 200.0 mg/kg/injection, schedule: Q04DX003 (ip), vehicle: Klucel (hydroxypropylcellulose) (HPC)
[18] = dose: 100.0 mg/kg/injection, schedule: Q01DX009 (ip), vehicle: water
[19] = dose: 200.0 mg/kg/injection, schedule: Q01DX009 (ip), vehicle: water
[20] = dose: 200.0 mg/kg/injection, schedule: Q04DX003 (ip), vehicle: water
[21] = dose: 400.0 mg/kg/injection, schedule: Q04DX003 (ip), vehicle: water

Measured: T/C

Clc1ccc2nc(CBr)cnc2c1
inactive: dose: 12.5 mg/kg/injection, schedule: Q01DX009 (ip), vehicle: other 104 % of control | [1] 120 % of control | dose: 25.0 mg/kg/injection, schedule: Q01DX009 (ip), vehicle: other 109 % of control | [2] 120 % of control | [3] 95 % of control | dose: 35.0 mg/kg/injection, schedule: Q04DX003 (ip), vehicle: saline 108 % of control | dose: 50.0 mg/kg/injection, schedule: Q01DX009 (ip), vehicle: other 118 % of control | [4] 118 % of control | dose: 50.0 mg/kg/injection, schedule: Q01DX009 (ip), vehicle: saline 110 % of control | [5] 109 % of control | dose: 55.0 mg/kg/injection, schedule: Q04DX003 (ip), vehicle: saline 116 % of control | dose: 80.0 mg/kg/injection, schedule: Q04DX003 (ip), vehicle: saline 116 % of control | [6] 109 % of control | [7] 103 % of control

CCN(CC)CCNc1ccc(C)c2sc3ccccc3c(=O)c12
active: dose: 50.0 mg/kg/injection, schedule: Q01DX010 (ip), vehicle: saline 150 % of control and 170 % of control | [8] 158 % of control
inactive: [1] 97 % of control | [2] 109 % of control | dose: 100.0 mg/kg/injection, schedule: Q01DX010 (ip), vehicle: saline 90 % of control

CC(=O)Oc1cc2c(cc1OC(C)=O)C(=O)CCC=C2
inactive: [9] 114 % of control | [10] 109 % of control | [4] 104 % of control

O=C(O)c1cc(C(=O)O)cc([N+](=O)[O-])c1
inactive: [10] 100 % of control | [4] 100 % of control | [11] 90 % of control

O=c1[nH]c(=O)n(C2CC(O)C(CO)O2)cc1I (configuration not stated)
inactive: dose: 10.0 mg/kg/injection, schedule: Q01DX009 (ip), vehicle: saline with Tween-80 109 % of control | dose: 20.0 mg/kg/injection, schedule: Q01DX009 (ip), vehicle: saline with Tween-80 107 % of control | dose: 40.0 mg/kg/injection, schedule: Q01DX009 (ip), vehicle: saline with Tween-80 92 % of control and 109 % of control | dose: 80.0 mg/kg/injection, schedule: Q01DX009 (ip), vehicle: saline with Tween-80 106 % of control and 118 % of control | dose: 320.0 mg/kg/injection, schedule: Q01DX009 (ip), vehicle: saline with Tween-80 90 % of control

COc1cccc(CN2CCNCC2)c1
inactive: dose: 6.25 mg/kg/injection, schedule: Q04DX003 (ip), vehicle: water 87 % of control | dose: 12.5 mg/kg/injection, schedule: Q04DX003 (ip), vehicle: water 89 % of control | [12] 93 % of control | [13] 101 % of control | [14] 94 % of control

CC(C)=CCCC(C)=C(C#N)C#N
inactive: [3] 107 % of control | [5] 105 % of control | [6] 107 % of control

COC(=O)C/C(=C/C=C1/C(=O)ON=C1C)c1c(C)[nH]oc1=O
inactive: [8] 90 % of control | dose: 200.0 mg/kg/injection, schedule: Q01DX009 (ip), vehicle: saline 100 % of control | dose: 400.0 mg/kg/injection, schedule: Q01DX009 (ip), vehicle: saline 95 % of control

CCCN([Si](C)(C)C)[Si](C)(C)C
inactive: [4] 107 % of control | [11] 107 % of control | [6] 100 % of control | [15] 100 % of control | [7] 104 % of control

Cc1cc(O)c(C(c2ccc(N(C)C)cc2Cl)c2c(O)cc(C)[nH]c2=O)c(=O)[nH]1
inactive: [4] 99 % of control | [11] 115 % of control

CC(=O)NN(c1ccccc1)c1ccccc1
inactive: dose: 50.0 mg/kg/injection, schedule: Q04DX003 (ip), vehicle: Klucel (hydroxypropylcellulose) (HPC) 112 % of control | [16] 91 % of control | [17] 108 % of control

O=c1c(N=Nc2ccccc2)c[nH]n1-c1ccccc1
inactive: dose: 62.5 mg/kg/injection, schedule: Q01DX009 (ip), vehicle: saline with Tween-80 90 % of control | dose: 250.0 mg/kg/injection, schedule: Q01DX009 (ip), vehicle: saline with Tween-80 88 % of control

CC(CNC(=O)CCOS(C)(=O)=O)NC(=O)CCOS(C)(=O)=O (configuration not stated)
inactive: dose: 600.0 mg/kg/injection, schedule: Q04DX003 (ip), vehicle: saline with Tween-80 109 % of control
active: dose: 264.0 mg/kg/injection, schedule: Q04DX003 (ip), vehicle: saline with Tween-80 213 % of control | dose: 267.0 mg/kg/injection, schedule: Q04DX003 (ip), vehicle: saline with Tween-80 183 % of control | dose: 400.0 mg/kg/injection, schedule: Q04DX003 (ip), vehicle: saline with Tween-80 208 % of control and 209 % of control | dose: 500.0 mg/kg/injection, schedule: Q04DX003 (ip), vehicle: saline with Tween-80 212 % of control

CCCCCCCCC(O)CCCCC (configuration not stated)
inactive: [16] 108 % of control | [17] 87 % of control | dose: 400.0 mg/kg/injection, schedule: Q04DX003 (ip), vehicle: Klucel (hydroxypropylcellulose) (HPC) 95 % of control

ClCCN(CCCl)c1ccc(CNCCCNCc2ccc(N(CCCl)CCCl)cc2)cc1
active: dose: 2.5 mg/kg/injection, schedule: Q01DX009 (ip), vehicle: saline sonified 160 % of control | dose: 3.75 mg/kg/injection, schedule: Q01DX009 (ip), vehicle: saline sonified 170 % of control

CC(C)(O)c1cccc(F)c1
inactive: [4] 100 % of control | [11] 104 % of control | [15] 109 % of control

CCCCCCCCCCCCCCCc1ccc(C(=O)C[n+]2ccccc2)cc1
inactive: dose: 3.13 mg/kg/injection, schedule: Q01DX009 (ip), vehicle: saline with Tween-80 100 % of control | dose: 6.25 mg/kg/injection, schedule: Q01DX009 (ip), vehicle: saline with Tween-80 104 % of control | [9] 118 % of control | dose: 16.5 mg/kg/injection, schedule: Q04DX003 (ip), vehicle: saline with Tween-80 122 % of control

CC1C=CCC(C)(C)C1 (configuration not stated)
inactive: [10] 104 % of control | [4] 100 % of control | [11] 100 % of control and 113 % of control

O=C(c1ccccc1)c1c(-c2ccccc2)c(C(=O)c2ccccc2)c2ccccc2c1Cl
inactive: dose: 12.5 mg/kg/injection, schedule: Q01DX009 (ip), vehicle: water 102 % of control | dose: 25.0 mg/kg/injection, schedule: Q01DX009 (ip), vehicle: water 113 % of control | [12] 114 % of control | dose: 50.0 mg/kg/injection, schedule: Q01DX009 (ip), vehicle: water 102 % of control | [13] 104 % of control | [18] 109 % of control | [14] 96 % of control | [19] 96 % of control | [20] 100 % of control | dose: 400.0 mg/kg/injection, schedule: Q01DX009 (ip), vehicle: water 102 % of control | [21] 98 % of control

CC(=O)O[C@@H]1[C@H]2O[C@H]2[C@H]2O[C@@]2(COC(=O)c2ccccc2)[C@H]1OC(C)=O
inactive: dose: 100.0 mg/kg/injection, schedule: Q01DX010 (ip), vehicle: steriod suspending solution 90 % of control | dose: 200.0 mg/kg/injection, schedule: Q01DX010 (ip), vehicle: steriod suspending solution 90 % of control | dose: 400.0 mg/kg/injection, schedule: Q01DX010 (ip), vehicle: steriod suspending solution 86 % of control

CC(O)Cc1c[nH]c(=O)[nH]c1=O (configuration not stated)
inactive: [18] 92 % of control | [14] 90 % of control | [19] 96 % of control | [20] 105 % of control | [21] 96 % of control
